From patent US20100310450A1, “METHOD OF DIAGNOSIS AND AGENTS USEFUL FOR SAME” (MEDVET SCIENCE PTY. LTD., priority 2006, published 2010) come the findings set out here.

One experiment concerns apoptotic Jurkat cells. The experiment can be described thus: Inhibition by the TG2 inhibitor MDC of protein crosslinking and 3B9 binding in cisplatin-treated Jurkat cells. It is filed as cell-based, human. Particulars: 20 μg/mL cisplatin. The procedure: FIG. 18 depicts that La antigen is crosslinked during apoptosis. (A) Jurkat cells incubated in 20 μg/mL cisplatin were removed at specified time points and incubated for 10 min. in 1% Triton X-100 solution before 3B9 binding analysis. Data are presented as density plots of staining with 3B9 vs. 7-AAD. (B) Immunoblots of cell lysates of control and cisplatin-treated Jurkat cells were probed with 3B9 for expression of La (top panels) or actin as a loading control (bottom panels) at specified times. (C) Jurkat cells incubated in the absence or presence of increasing concentrations of cisplatin were labeled with cadaverine-biotin added at 100 μM for 48 h. Cells were stained with strepatavidin-Alexa488 and analyzed by flow cytometry. Data shown are MFI±SEM (n=3). […] Cells were analyzed at specified times (24 □, 48 ? and 72 h ▪) for sulforhodamine 101 staining. […]
Transglutaminase 2 (TG2)-mediated protein-protein crosslinking in apoptotic cells was investigated using a modification of a previously described method. […] Samples were vortexed and incubated for 5 min. before analysis by flow cytometry where fluorescence from Sytox Green and sulforhodamine were detected using FL-1 and FL-3, respectively. The degree of crosslinking in apoptotic cells was calculated as the ratio of the MFI of sulforhodamine staining in apoptotic cells to the MFI in control cells (protein crosslinking ratio). […]

Experiment [1] has as its system PANC-1 cells. The experiment can be described thus: Cell death (7-AAD) and 3B9-specific binding after gemcitabine and TSA. To be noted: TSA alone; data not shown. The class given is cell-based, human. The procedure:
FIG. 15 depicts that 3B9 binding to dead PANC-1 cells is augmented after combination treatment with gemcitabine and TSA produced additive cytotoxicity and DNA-damaging effects. PANC-1 cells were incubated with increasing concentrations of gemcitabine in the absence (clear columns) or presence of 100 ng/mL (hatched columns) or 200 ng/mL (filled columns) of TSA. Analysis was done for viability using 7-AAD (A), 3B9-specific binding (B) and DNA damage using γH2AX staining (C). Data are presented as mean±SEM from three independent experiments. Photomicrographs show PANC-1 cells treated with gemcitabine and TSA (+) or not (−), which were stained with γH2AX-specific mAb and 7-AAD (D).
PANC-1 cells (2×10^4 cells) were seeded in flat bottom 96-well plates overnight using phenol-free RPMI-1640 medium containing 10% FCS (medium). Cells were incubated with the specified concentrations of gemcitabine or TSA singly or in combination. Cells were collected (from media and EDTA detached adherent cells) and subjected to indirect immunofluorescence staining with Apomab or its Sal5 isotype control mAb and assessed for viability with 7-AAD staining. […]
(§1) Apoptosis or cell death was induced by adding cytotoxic drugs to culture media at the specified concentrations. […] Control (untreated) cells had ≧90% viability determined by PI or trypan blue staining (data not shown). […]

Experiment [2] relates to PANC-1 cells. The experiment can be described thus: MTS proliferation assay with TSA and gemcitabine. The class given is cell-based, human. Particulars: TSA alone. As for the experimental part:
FIG. 40 depicts that gemcitabine and TSA synergise to reduce proliferation rates among PANC-1 cells in vitro. PANC-1 cells (2×10^4 cells) were seeded in flat bottom 96-well plates overnight using phenol-free RPMI-1640 medium containing 10% FCS (medium). A serial dilution of 2×10^4 cells was used to construct a standard curve for the MTS assay. Triplicate wells were incubated with increasing concentrations of TSA (nM) with or without the addition of increasing concentrations of gemcitabine. Three identical plates were incubated for 24, 48 or 72 h then medium was decanted and fresh medium (100 μL) containing 20 μL MTS/PMS substrate was added to all wells. Assays were performed according to the manufacturer's instructions. The change in the absorbance reading over time was calculated for each condition in units of change per 12 h (upper panel), which was converted to units of cell number change per 12 h (lower panel) using a standard curve of the absorbance reading as a function of […] (r^2=0.99).
In general terms: Tetrazolium dyes change colour on reduction, which living cells bring about.

The subject of the next experiment is Jurkat cells. The experiment can be described thus: Apomab-specific binding to cisplatin-treated Jurkat cells with TSA. It is filed as cell-based, human. Particulars: TSA added to 10 μg/mL cisplatin, 48 h. As for the experimental part:
FIG. 36 depicts that the histone deacetylase inhibitor (HDACi) trichostatin A (TSA) exerts dose-dependent synergy with cisplatin to augment Apomab-specific binding to dead Jurkat cells. Jurkat cells were incubated for 48 h with 10 μg/mL cisplatin together with increasing concentrations of TSA. Cells were subjected to indirect immunofluorescence staining using Apomab or its Sal5 isotype control mAb and viability was assessed using 7-AAD. Apomab-specific binding was calculated as the Net MFI after gating on 7-AAD^+ events. Data are presented as the mean±SEM from two separate experiments. (A) Apomab-specific binding to cisplatin-treated Jurkat cells is plotted as a function of TSA concentration. […]
as §1
Indirect immunofluorescence staining was performed using purified mouse antibodies at 5 μg/mL for 30 min. at room temperature (RT) in PBS followed by Alexa488-conjugated anti-mouse IgG at 2 μg/mL for 30 min. at RT in PBS. […] Cell viability was assessed by the exclusion of PI (0.5 μg/mL) and detected using the FL-2 channel (585 nm filter) or by the exclusion of 7-AAD (2 μg/mL for 15 min. at RT) and detected using the FL-3 channel (>650 nm filter). […]

The next experiment deals with Raji. As to the kind of experiment: Binding of La-specific mAb (3B9-FITC) to apoptotic human cancer cell lines, dual-colour flow cytometry. Particulars: 2 μM staurosporine, 20 μg/mL etoposide or 0.1 μg/mL vincristine, 3B9-FITC and PI. In general terms: In flow cytometry, cells or beads pass a laser one at a time.

`CN(C)c1cccc2c(S(=O)(=O)NCCCCCN)cccc12` [MDC, monodansylcadaverine]: the “effect on protein crosslinking (sulforhodamine crosslinking ratio)” value with apoptotic Jurkat cells is given as “dose-dependent inhibitory effect”.

Consider `CC(/C=C/C(=O)NO)=C\[C@@H](C)C(=O)c1ccc(N(C)C)cc1` [TSA, trichostatin A], for which the “3B9 binding in comparison with control PANC-1 cells” value in the experiment on PANC-1 cells [1] is reported as “did not alter 3B9 binding”. Besides, the “effect on proliferation of PANC-1 cells” value in the experiment with PANC-1 cells [2] is listed as “inhibited proliferation”. The “Apomab-specific binding to dead Jurkat cells” value in the experiment on Jurkat cells is reported as “dose-dependent increase”.

`CC[C@]1(O)C[C@H]2CN(CCc3c([nH]c4ccccc34)[C@@](C(=O)OC)(c3cc4c(cc3OC)N(C=O)[C@H]3[C@@](O)(C(=O)OC)[C@H](OC(C)=O)[C@]5(CC)C=CCN6CC[C@]43[C@@H]65)C2)C1` [Vincristine, vincristine]: the “percentages of PI+ and 3B9+ events after subtraction of control (PI+ and Sal5+) events” value in the experiment with Raji amounted to 9.8%.
